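96-well plates; 48 h exposure; 5 concentrations. Endpoints by linear interpolation between flanking doses. Not reached: highest tested concentration assigned. TGI marks complete inhibition of growth.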
Key:
Test in all cases: DTP human tumour cell line panel, 48 h
LXFL 529 NSCLC = system: LXFL 529 NSCLC
K-562 leukemia = system: K-562 leukemia
NCI-H460 lung = system: NCI-H460 lung
HOP-92 NSCLC = system: HOP-92 NSCLC
KM12 colon = system: KM12 colon
MOLT-4 leukemia = system: MOLT-4 leukemia
SK-MEL-28 melanoma = system: SK-MEL-28 melanoma
KM20L2 colon = system: KM20L2 colon
SN12C renal = system: SN12C renal
HL-60(TB) leukemia = system: HL-60(TB) leukemia
M19-MEL melanoma = system: M19-MEL melanoma
UO-31 renal = system: UO-31 renal
MALME-3M melanoma = system: MALME-3M melanoma
A498 renal = system: A498 renal
OVCAR-8 ovarian = system: OVCAR-8 ovarian
HT29 colon = system: HT29 colon
NCI-H226 lung = system: NCI-H226 lung
HCC-2998 colon = system: HCC-2998 colon
EKVX NSCLC = system: EKVX NSCLC
SF-295 CNS = system: SF-295 CNS
SW-620 colon = system: SW-620 colon
UACC-62 melanoma = system: UACC-62 melanoma
M14 melanoma = system: M14 melanoma
SK-OV-3 ovarian = system: SK-OV-3 ovarian
SNB-19 CNS = system: SNB-19 CNS
OVCAR-4 ovarian = system: OVCAR-4 ovarian
SK-MEL-2 melanoma = system: SK-MEL-2 melanoma
RXF 393 renal = system: RXF 393 renal
RPMI-8226 leukemia = system: RPMI-8226 leukemia
LOX IMVI melanoma = system: LOX IMVI melanoma
DMS 273 small cell lung = system: DMS 273 small cell lung
U251 CNS = system: U251 CNS
XF 498 CNS = system: XF 498 CNS
OVCAR-5 ovarian = system: OVCAR-5 ovarian
HCT-15 colon = system: HCT-15 colon
CCRF-CEM leukemia = system: CCRF-CEM leukemia
CAKI-1 renal = system: CAKI-1 renal
ACHN renal = system: ACHN renal
TK-10 renal = system: TK-10 renal
HCT-116 colon = system: HCT-116 colon
SNB-75 CNS = system: SNB-75 CNS
HOP-18 NSCLC = system: HOP-18 NSCLC
UACC-257 melanoma = system: UACC-257 melanoma
SR leukemia = system: SR leukemia
SF-539 CNS = system: SF-539 CNS
IGROV1 ovarian = system: IGROV1 ovarian
SNB-78 CNS = system: SNB-78 CNS
COLO 205 colon = system: COLO 205 colon
OVCAR-3 ovarian = system: OVCAR-3 ovarian
A549 NSCLC = system: A549 NSCLC
786-0 renal = system: 786-0 renal
HOP-62 NSCLC = system: HOP-62 NSCLC
SK-MEL-5 melanoma = system: SK-MEL-5 melanoma
NCI-H23 lung = system: NCI-H23 lung
DLD-1 colon = system: DLD-1 colon
SF-268 CNS = system: SF-268 CNS
DMS 114 small cell lung = system: DMS 114 small cell lung
NCI-H522 lung = system: NCI-H522 lung
RXF-631 renal = system: RXF-631 renal

O=C(Nc1ccccc1)OCc1nc2c([nH]1)C(=O)C=CC2=O
TGI (LXFL 529 NSCLC): 11.1 µM | TGI (K-562 leukemia): 7.36 µM | TGI (NCI-H460 lung): 36.8 µM | TGI (HOP-92 NSCLC): 45.1 µM | TGI (KM12 colon): 29 µM | TGI (MOLT-4 leukemia): 6.71 µM | TGI (SK-MEL-28 melanoma): 30.5 µM | TGI (KM20L2 colon): 41 µM | TGI (SN12C renal): 36.3 µM | TGI (HL-60(TB) leukemia): 15.2 µM | TGI (M19-MEL melanoma): 29.5 µM | TGI (UO-31 renal): 30.5 µM | TGI (MALME-3M melanoma): 18.3 µM | TGI (A498 renal): 30.1 µM | TGI (OVCAR-8 ovarian): 34 µM | TGI (HT29 colon): 58.5 µM | TGI (NCI-H226 lung): 33.3 µM | TGI (HCC-2998 colon): 30.1 µM | TGI (EKVX NSCLC): 41 µM | TGI (SF-295 CNS): 33.1 µM | TGI (SW-620 colon): 8.79 µM | TGI (UACC-62 melanoma): 36.9 µM | TGI (M14 melanoma): 29.8 µM | TGI (SK-OV-3 ovarian): 29.3 µM | TGI (SNB-19 CNS): 28.5 µM | TGI (OVCAR-4 ovarian): 28 µM | TGI (SK-MEL-2 melanoma): 34.2 µM | TGI (RXF 393 renal): 23 µM | TGI (RPMI-8226 leukemia): 51.1 µM | TGI (LOX IMVI melanoma): 30.9 µM | TGI (DMS 273 small cell lung): 42 µM | TGI (U251 CNS): 25.5 µM | TGI (XF 498 CNS): 30.9 µM | TGI (OVCAR-5 ovarian): 36.8 µM | TGI (HCT-15 colon): 38 µM | TGI (CCRF-CEM leukemia): 13.1 µM | TGI (CAKI-1 renal): 13.4 µM | TGI (ACHN renal): 25.2 µM | TGI (TK-10 renal): 27 µM | TGI (HCT-116 colon): 28.4 µM | TGI (SNB-75 CNS): 37.1 µM | TGI (HOP-18 NSCLC): 23 µM | TGI (UACC-257 melanoma): 13.7 µM | TGI (SR leukemia): 51.7 µM | TGI (SF-539 CNS): > 100 µM | TGI (IGROV1 ovarian): 30.7 µM | TGI (SNB-78 CNS): 45.3 µM | TGI (COLO 205 colon): 3.94 µM | TGI (OVCAR-3 ovarian): 30.8 µM | TGI (A549 NSCLC): 31.9 µM | TGI (786-0 renal): 32.5 µM | TGI (HOP-62 NSCLC): > 100 µM | TGI (SK-MEL-5 melanoma): 27.3 µM | TGI (NCI-H23 lung): 40 µM | TGI (DLD-1 colon): > 100 µM

CCN1CCC(O)(c2ccc(Cl)c(Cl)c2)C(C(=O)c2ccc(Cl)c(Cl)c2)C1 (centres undefined)
TGI (LXFL 529 NSCLC): 30.1 µM | TGI (K-562 leukemia): 37.7 µM | TGI (NCI-H460 lung): 43.6 µM | TGI (HOP-92 NSCLC): 29 µM | TGI (MOLT-4 leukemia): 32.4 µM | TGI (SK-MEL-28 melanoma): 33 µM | TGI (KM20L2 colon): 36.6 µM | TGI (SN12C renal): 35 µM | TGI (HL-60(TB) leukemia): 33.4 µM | TGI (SF-268 CNS): 38.6 µM | TGI (UO-31 renal): 31.4 µM | TGI (MALME-3M melanoma): 33.6 µM | TGI (A498 renal): 40.2 µM | TGI (OVCAR-8 ovarian): 41 µM | TGI (HT29 colon): 32.2 µM | TGI (NCI-H226 lung): 40.1 µM | TGI (HCC-2998 colon): 35.1 µM | TGI (EKVX NSCLC): 33.6 µM | TGI (SF-295 CNS): 31.9 µM | TGI (SW-620 colon): 38.7 µM | TGI (UACC-62 melanoma): 31.5 µM | TGI (DMS 114 small cell lung): 33.9 µM | TGI (M14 melanoma): 30.9 µM | TGI (SK-OV-3 ovarian): 32.8 µM | TGI (SNB-19 CNS): 35.1 µM | TGI (OVCAR-4 ovarian): 32.6 µM | TGI (SK-MEL-2 melanoma): 31.9 µM | TGI (RPMI-8226 leukemia): 5.72 µM | TGI (LOX IMVI melanoma): 34 µM | TGI (DMS 273 small cell lung): 34 µM | TGI (U251 CNS): 35.9 µM | TGI (XF 498 CNS): 34.4 µM | TGI (NCI-H522 lung): 13 µM | TGI (OVCAR-5 ovarian): 35.7 µM | TGI (HCT-15 colon): 36.6 µM | TGI (CCRF-CEM leukemia): 36.6 µM | TGI (CAKI-1 renal): 32.6 µM | TGI (ACHN renal): 28.3 µM | TGI (TK-10 renal): 30.5 µM | TGI (HCT-116 colon): 32.4 µM | TGI (SNB-75 CNS): 28.5 µM | TGI (UACC-257 melanoma): 32 µM | TGI (SF-539 CNS): 32.1 µM | TGI (IGROV1 ovarian): 41.3 µM | TGI (COLO 205 colon): 31.7 µM | TGI (OVCAR-3 ovarian): 27 µM | TGI (A549 NSCLC): 40.7 µM | TGI (786-0 renal): 29.1 µM | TGI (HOP-62 NSCLC): 33.9 µM | TGI (SK-MEL-5 melanoma): 31.5 µM | TGI (NCI-H23 lung): 36.3 µM | TGI (DLD-1 colon): 33 µM

Oc1cccc2nc3cc(CN4CCOCC4)c(CN4CCOCC4)cc3nc12
TGI (LXFL 529 NSCLC): > 100 µM | TGI (K-562 leukemia): > 100 µM | TGI (NCI-H460 lung): > 100 µM | TGI (HOP-92 NSCLC): > 100 µM | TGI (KM12 colon): > 100 µM | TGI (MOLT-4 leukemia): > 100 µM | TGI (SK-MEL-28 melanoma): > 100 µM | TGI (KM20L2 colon): > 100 µM | TGI (SN12C renal): > 100 µM | TGI (HL-60(TB) leukemia): > 100 µM | TGI (M19-MEL melanoma): 66.5 µM | TGI (SF-268 CNS): > 100 µM | TGI (UO-31 renal): > 100 µM | TGI (MALME-3M melanoma): > 100 µM | TGI (A498 renal): > 100 µM | TGI (OVCAR-8 ovarian): > 100 µM | TGI (HT29 colon): > 100 µM | TGI (NCI-H226 lung): > 100 µM | TGI (HCC-2998 colon): > 100 µM | TGI (EKVX NSCLC): > 100 µM | TGI (SF-295 CNS): > 100 µM | TGI (SW-620 colon): > 100 µM | TGI (UACC-62 melanoma): 76.8 µM | TGI (M14 melanoma): 38.9 µM | TGI (SK-OV-3 ovarian): > 100 µM | TGI (SNB-19 CNS): > 100 µM | TGI (OVCAR-4 ovarian): > 100 µM | TGI (SK-MEL-2 melanoma): > 100 µM | TGI (RXF 393 renal): > 100 µM | TGI (LOX IMVI melanoma): > 100 µM | TGI (DMS 273 small cell lung): > 100 µM | TGI (U251 CNS): > 100 µM | TGI (XF 498 CNS): > 100 µM | TGI (NCI-H522 lung): > 100 µM | TGI (OVCAR-5 ovarian): > 100 µM | TGI (HCT-15 colon): > 100 µM | TGI (CCRF-CEM leukemia): > 100 µM | TGI (CAKI-1 renal): > 100 µM | TGI (ACHN renal): > 100 µM | TGI (TK-10 renal): > 100 µM | TGI (HCT-116 colon): > 100 µM | TGI (SNB-75 CNS): > 100 µM | TGI (HOP-18 NSCLC): > 100 µM | TGI (UACC-257 melanoma): > 100 µM | TGI (SR leukemia): > 100 µM | TGI (SF-539 CNS): > 100 µM | TGI (IGROV1 ovarian): > 100 µM | TGI (SNB-78 CNS): > 100 µM | TGI (COLO 205 colon): > 100 µM | TGI (OVCAR-3 ovarian): > 100 µM | TGI (RXF-631 renal): > 100 µM | TGI (A549 NSCLC): > 100 µM | TGI (786-0 renal): > 100 µM | TGI (HOP-62 NSCLC): > 100 µM | TGI (SK-MEL-5 melanoma): 55.3 µM | TGI (NCI-H23 lung): > 100 µM | TGI (DLD-1 colon): > 100 µM

Reference: PubChem BioAssay (NCI)
